Patent publication US7772221B2, “Diaminopropane derived macrocycles as inhibitors of β amyloid production” (Bristol-Meyers Squibb Company, priority 2007, dated 2010)
Like-named read-outs stand apart in the source and are kept apart here.

What was measured:
[1] = rcm bond
[2] = rcm bond, 1,2-dichloroethane, 60.0 °C
BACE1 enzyme = biological target: T1, BACE1 enzyme (Homo sapiens, UniProt P56817); assay: Radioligand displacement assay with a radiolabeled BACE inhibitor; format: binding; details: HEK293-9B.A1 cell homogenate overexpressing BACE1, 1 nM radioligand, pH 5.0, 1.5 hr at 25° C.; read-out: Activity Rating (activity based on IC50 values)
T1 construct: endogenous in cells; washed 48,000 x g membrane pellet / cell homogenate
T1 sequence (P56817 46-501): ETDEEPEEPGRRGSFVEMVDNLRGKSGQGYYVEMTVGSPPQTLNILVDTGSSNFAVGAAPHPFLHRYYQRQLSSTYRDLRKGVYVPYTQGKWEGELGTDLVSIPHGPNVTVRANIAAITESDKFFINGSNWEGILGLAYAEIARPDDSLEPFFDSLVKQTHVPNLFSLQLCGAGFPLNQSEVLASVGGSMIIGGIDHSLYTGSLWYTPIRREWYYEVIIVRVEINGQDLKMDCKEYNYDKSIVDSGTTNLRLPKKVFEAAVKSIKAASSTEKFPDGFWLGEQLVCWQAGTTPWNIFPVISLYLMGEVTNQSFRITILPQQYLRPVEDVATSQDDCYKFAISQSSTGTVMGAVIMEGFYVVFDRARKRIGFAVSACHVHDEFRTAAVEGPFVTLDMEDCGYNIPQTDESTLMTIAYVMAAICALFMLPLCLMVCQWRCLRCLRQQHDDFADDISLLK
From the text: There are a number of methods by which inhibitors of the BACE enzyme can be identified experimentally. The enzyme can be obtained from membrane samples from natural tissues or cultured cells or can be expressed recombinantly in a host cell by well known methods of molecular biology. The whole enzyme or a portion thereof can be expressed, for example, in bacterial, insect or mammalian cells to obtain a catalytically active enzyme species. The enzymatic activity and/or ligand binding capability of the enzyme can be assessed within these membrane samples, or the enzyme can be purified to varying extents. As an illustrative example, the nucleic acid sequence encoding the pro and catalytic domains of human BACE can be appended on the 5′ end with an untranslated and signal sequence from the gene for acetylcholinesterase, and on the 3′ end with a sequence encoding a poly-histidine tag. This cDNA can then be expressed in Drosophila melanogaster S2 cells in which the signal and pro sequences of the transcribed/translated protein are removed by cellular proteases and the catalytic domain, appended by a C-terminal poly-histidine tag, is secreted out into the cellular medium. The enzyme can then be purified from the culture medium by nickel affinity chromatography by methods well known to those trained in the art [Mallender, W. et al., “Characterization of recombinant, soluble beta-secretase from an insect cell expression system.” Mol. Pharmacol. 2001, 59: 619-626]. Similar strategies for expressing and purifying various forms of BACE in bacterial, mammalian and other cell types would be known to one skilled in the art. A preferred method for determining the potency of a test compound in binding to the BACE enzyme is by monitoring the displacement of a suitable radioligand.
Radioligand displacement assays with a radiolabeled BACE inhibitor (WO 2004 013098, compound 3, where the methoxy group is substituted for C(^3H)3) were carried out using standard methods (Keen, M. (1999) in Receptor Binding Techniques (Walker, J. M. ed) p. 106 Humana Press, Totowa, N.J.). The HEK293-9B.A1 cell line, which overexpresses the BACE1 enzyme, was derived from HEK293 cells (Simmons, N. L. (1990) A cultured human renal epithelioid cell line responsive to vasoactive intestinal peptide. Exp. Physiol. 75:309-19.) by RAGE™ (Harrington, J. J. et al. (2001) Creation of genome-wide protein expression libraries using random activation of gene expression. Nat. Biotechnol. 19:440-5.; U.S. Pat. Nos. 6,410,266 and 6,361,972). T225 flask cultures of HEK293-9B.A1 were grown to 80% confluency in DMEM supplemented with 2 mM L-glutamine, 10 μg/mL penicillin, 10 μg/mL streptomycin, 3 μg/mL puromycin, 100 nM methotrexate, and 10% fetal bovine serum (Invitrogen, Carlsbad, Calif.), harvested, and resuspended at 2×10^8 cells per 10 mL of lysis buffer consisting of 50 mM HEPES pH 7.0 containing a protease inhibitor cocktail of AEBSF 104 μM, aprotinin 80 nM, leupeptin 2 μM, bestatin 4 μM, pepstatin A 1.5 μM, and E-64 1.4 μM (0.1% of protease inhibitor cocktail P8340, Sigma-Aldrich, St. Louis, Mo.) at 4° C. The resuspended cells were homogenized using a Polytron (Brinkman, Westbury, N.Y.) at setting 6 for 10 sec., then centrifuged at 48,000×g for 10 min. The resulting pellet was washed by repeating the resuspension, homogenization and centrifugation steps. The final pellet was resuspended in buffer at 4° C. to yield a total protein concentration of 5 mg/mL, then aliquots were frozen in liquid nitrogen for further storage at −70° C. Immediately before carrying out a binding assay, an aliquot of cell homogenate was thawed and diluted to a concentration of 100 μg/mL in assay buffer consisting of 50 mM HEPES pH 5.0 and 0.1% CHAPSO. […]

CCCC(CCC)C(=O)N(C)[C@H]1CC=CCO[C@@H]2C[C@H](NC[C@@H](O)[C@H](Cc3ccccc3)NC1=O)c1cc(OC)ccc12
ring closure, yield after HPLC ([1]; from C=CCO[C@@H]1C[C@H](NC[C@@H](O)[C@H](Cc2ccccc2)NC(=O)[C@H](CC=C)N(C)C(=O)C(CCC)CCC)c2cc(OC)ccc21, 15-membered ring, Hoveyda-Grubbs II (9 mol%), DCM, 25.0 °C, 16.0 h): 34%

CCCCCS(=O)(=O)N(C)[C@H]1CC=CCCCc2ccc(C)cc2CNC[C@@H](O)[C@H](Cc2cc(F)cc(F)c2)NC1=O
ring closure, isolated yield ([2]; from (S)-N-((2S,3R)-1-(3,5-difluorophenyl)-3-hydroxy-4-(5-methyl-2-(pent-4-enyl)benzylamino)butan-2-yl)-2-(N-methylpentylsulfonamido) pent-4-enamide, 16-membered ring, Hoveyda-Grubbs (20 mol%), 6.3 mM): 18%

CCCOc1ccc2c(c1)[C@@H]1C[C@H]2OCC=CCCCC(=O)N[C@@H](Cc2cc(F)cc(F)c2)[C@H](O)CN1
ring closure, yield after HPLC ([1]; from C=CCCCC(=O)N[C@@H](Cc1cc(F)cc(F)c1)[C@H](O)CN[C@H]1C[C@@H](OCC=C)c2ccc(OCCC)cc21, 16-membered ring, Hoveyda-Grubbs II, DCM, 25.0 °C, 16.0 h): 20%

COc1ccc2c(c1)[C@@H]1CC2N(C(=O)OCc2ccccc2)CCC=CC[C@H](N(C)C(C)=O)C(=O)N[C@@H](Cc2ccccc2)[C@H](O)CN1
ring closure, yield after HPLC ([1]; from C=CCCN(C(=O)OCc1ccccc1)C1C[C@H](NC[C@@H](O)[C@H](Cc2ccccc2)NC(=O)[C@H](CC=C)N(C)C(C)=O)c2cc(OC)ccc21, 16-membered ring): 83%

CCCCCS(=O)(=O)N(C)[C@H]1CC=CCCCc2ccc(C(F)(F)F)cc2CNC[C@@H](O)[C@H](Cc2cc(F)cc(F)c2)NC1=O [Example 40, N-((4R,5S,8S)-5-(3,5-difluorobenzyl)-4-hydroxy-17-(trifluoromethyl)-7-oxo-1,2,3,4,5,6,7,8,9,12,13,14-dodecahydrobenzo[g][1,5]diazacyclohexadecin-8-yl)-N-methylpentane-1-sulfonamide]
ring closure, isolated yield ([2]; from C=CCCCc1ccc(C(F)(F)F)cc1CNC[C@@H](O)[C@H](Cc1cc(F)cc(F)c1)NC(=O)[C@H](CC=C)N(C)S(=O)(=O)CCCCC, 16-membered ring, Hoveyda-Grubbs (19 mol%), 6.5 mM, 16.0 h): 32% | IC50 (BACE1 enzyme): 10 to 500 nM

CC(C)C[C@@H]1COCC=CCC[C@H](N(C)S(=O)(=O)CCC(F)(F)F)C(=O)N[C@@H](Cc2cc(F)cc(F)c2)[C@H](O)CN1 [Example 42, N-((3R,6R,7S,10S)-7-(3,5-difluorobenzyl)-6-hydroxy-3-isobutyl-9-oxo-1-oxa-4,8-diazacyclopentadec-13-en-10-yl)-3,3,3-trifluoro-N-methylpropane-1-sulfonamide]
ring closure, isolated yield ([2]; from C=CCC[C@@H](C(=O)N[C@@H](Cc1cc(F)cc(F)c1)[C@H](O)CN[C@@H](COCC=C)CC(C)C)N(C)S(=O)(=O)CCC(F)(F)F, 15-membered ring, Hoveyda-Grubbs (16 mol%), 19.0 mM, 16.0 h): 19% | IC50 (BACE1 enzyme): > 500 nM

CCCC[C@H](C)C(=O)N(C)[C@H]1CC=CCOc2ccc(OC)cc2CNC[C@@H](O)[C@H](Cc2ccccc2)NC1=O [Example 59, (S)-N-((6S,9S,10R)-9-benzyl-10-hydroxy-15-methoxy-7-oxo-2,5,6,7,8,9,10,11,12,13-decahydrobenzo[b][1,5,9]oxadiazacyclopentadecin-6-yl)-N,2-dimethylhexanamide]
ring closure, yield after HPLC ([1]; from C=CCOc1ccc(OC)cc1CNC[C@@H](O)[C@H](Cc1ccccc1)NC(=O)[C@H](CC=C)N(C)C(=O)[C@@H](C)CCCC, 15-membered ring, Hoveyda-Grubbs II (21 mol%), DCM, 4.3 mM, 40.0 °C, 4.0 h): 49% | IC50 (BACE1 enzyme): > 500 nM

O=C1CCCC=CCO[C@@H]2C[C@H](NC[C@@H](O)[C@H](Cc3cc(F)cc(F)c3)N1)c1cc(-c3cc(C(F)(F)F)cc(C(F)(F)F)c3)ccc12 [Example 91, (1S,4R,5S,15R)-19-(3,5-bis-trifluoromethyl-phenyl)-5-(3,5-difluoro-benzyl)-4-hydroxy-14-oxa-2,6-diaza-tricyclo[13.6.1.0^16,21]docosa-11,16(21),17,19-tetraen-7-one]
IC50 (BACE1 enzyme): > 500 nM

CC(C)(C)OC(=O)N1CC2CN(c3ccc4c(c3)[C@@H]3C[C@H]4OCC=CCCCC(=O)N[C@@H](Cc4cc(F)cc(F)c4)[C@H](O)CN3)CC2C1 (stereo partly drawn) [Example 96, 5-[(1S,4R,5S,15R)-5-(3,5-difluoro-benzyl)-4-hydroxy-7-oxo-14-oxa-2,6-diaza-tricyclo[13.6.1.0^16,21]docosa-11,16(21),17,19-tetraen-19-yl]-hexahydro-pyrrolo[3,4-c]pyrrole-2-carboxylic acid tert-butyl ester]
IC50 (BACE1 enzyme): 10 to 500 nM

CCCC[C@H](C)C(=O)N(C)[C@H]1CC=CCO[C@@H]2C[C@H](NC[C@@H](O)[C@H](Cc3ccccc3)NC1=O)c1cc(C)cc(C)c12 [Example 100, (S)-2-methyl-hexanoic acid ((1S,4R,5S,8S,14R)-5-benzyl-4-hydroxy-16,18-dimethyl-7-oxo-13-oxa-2,6-diaza-tricyclo[12.6.1.0^15,20]henicosa-10,15(20),16,18-tetraen-8-yl)-methyl-amide]
IC50 (BACE1 enzyme): < 10 nM
